Data reported in ChEMBL document CHEMBL2396607 (Bioorg Med Chem Lett, 2013).

Experiments:
[1] = target: T1, Phosphatidylinositol 4,5-bisphosphate 3-kinase catalytic subunit delta isoform (Homo sapiens, UniProt O00329); assay: Inhibition of N-terminal myristoylated P110delta (unknown origin)-mediated AKT phosphorylation at Ser473 expressed in rat Rat1 cells by ELISA; assay type: cell-based
T1 sequence (O00329 whole entry): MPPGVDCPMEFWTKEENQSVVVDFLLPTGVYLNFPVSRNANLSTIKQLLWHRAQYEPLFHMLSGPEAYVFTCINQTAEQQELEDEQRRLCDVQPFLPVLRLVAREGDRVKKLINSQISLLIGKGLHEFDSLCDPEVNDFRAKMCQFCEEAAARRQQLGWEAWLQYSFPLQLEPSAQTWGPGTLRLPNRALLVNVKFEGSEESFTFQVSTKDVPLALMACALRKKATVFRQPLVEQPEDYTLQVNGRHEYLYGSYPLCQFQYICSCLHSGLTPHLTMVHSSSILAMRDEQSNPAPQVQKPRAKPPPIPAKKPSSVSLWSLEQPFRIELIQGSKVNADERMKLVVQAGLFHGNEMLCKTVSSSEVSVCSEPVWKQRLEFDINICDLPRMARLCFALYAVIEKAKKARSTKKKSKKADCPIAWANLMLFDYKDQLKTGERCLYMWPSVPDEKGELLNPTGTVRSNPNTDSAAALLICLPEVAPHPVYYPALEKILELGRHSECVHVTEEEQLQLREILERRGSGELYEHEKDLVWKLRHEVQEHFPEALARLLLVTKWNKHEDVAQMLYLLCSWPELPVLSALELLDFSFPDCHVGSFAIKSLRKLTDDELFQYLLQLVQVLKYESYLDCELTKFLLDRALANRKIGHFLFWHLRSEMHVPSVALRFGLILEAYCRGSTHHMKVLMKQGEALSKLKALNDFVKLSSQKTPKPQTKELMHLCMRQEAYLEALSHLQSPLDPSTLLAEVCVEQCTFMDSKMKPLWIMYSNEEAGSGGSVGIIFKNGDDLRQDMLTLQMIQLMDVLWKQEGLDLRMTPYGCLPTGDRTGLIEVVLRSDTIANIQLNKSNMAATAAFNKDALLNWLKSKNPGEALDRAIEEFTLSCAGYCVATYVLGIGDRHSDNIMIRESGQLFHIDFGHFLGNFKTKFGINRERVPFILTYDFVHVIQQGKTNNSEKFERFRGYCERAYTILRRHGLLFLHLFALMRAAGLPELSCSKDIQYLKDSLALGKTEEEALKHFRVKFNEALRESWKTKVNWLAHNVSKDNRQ

Cytochrome P450 3A4 = Cytochrome P450 3A4 (Homo sapiens, UniProt P08684); assay: Inhibition of CYP3A4 (unknown origin); assay type: ADME
[2] = target: T2, Phosphatidylinositol 4,5-bisphosphate 3-kinase catalytic subunit beta isoform (Homo sapiens, UniProt P42338); assay: Inhibition of P110beta (unknown origin) using L-a-phosphatidylinositol as substrate by luminescence assay
[3] = Clearance in Sprague-Dawley rat at 1 mg/kg, iv; assay type: ADME, organism-based; set-up: dose 1 mg/kg, route intravenous; conditions: in vivo
[4] = target: Phosphatidylinositol 4,5-bisphosphate 3-kinase catalytic subunit gamma isoform (Homo sapiens, UniProt P48736); assay: Inhibition of P110gamma (unknown origin) using PIP2:PS as substrate by TR-FRET assay
[5] = Plasma protein binding in Sprague-Dawley rat at 1 mg/kg, iv; assay type: ADME, organism-based; set-up: dose 1 mg/kg, route intravenous; conditions: read-out: PPB (converted)
[6] = Clearance in rat liver microsomes; assay type: ADME, Microsome; conditions: read-out: CLH
[7] = Half life in Sprague-Dawley rat at 1 mg/kg, iv; assay type: ADME, organism-based; set-up: dose 1 mg/kg, route intravenous; conditions: in vivo
[8] = Volume of distribution at steady state in Sprague-Dawley rat at 1 mg/kg, iv; assay type: ADME, organism-based; set-up: dose 1 mg/kg, route intravenous; conditions: in vivo, read-out: Vdss
[9] = target: T1, Phosphatidylinositol 4,5-bisphosphate 3-kinase catalytic subunit delta isoform; assay: Inhibition of P110delta (unknown origin) using PIP2:PS as substrate by TR-FRET assay
[10] = target: T2, Phosphatidylinositol 4,5-bisphosphate 3-kinase catalytic subunit beta isoform; assay: Inhibition of N-terminal myristoylated P110beta (unknown origin)-mediated AKT phosphorylation at Ser473 expressed in rat Rat1 cells by ELISA; assay type: cell-based
[11] = target: T3, Phosphatidylinositol 4,5-bisphosphate 3-kinase catalytic subunit alpha isoform (Homo sapiens, UniProt P42336); assay: Inhibition of N-terminal myristoylated P110alpha (unknown origin)-mediated AKT phosphorylation at Ser473 expressed in rat Rat1 cells by ELISA; assay type: cell-based
[12] = Clearance in rat at 3.4 mg/kg, iv and 15 mg/kg, po; assay type: ADME, organism-based; conditions: in vivo
[13] = target: Serine-protein kinase ATM (Homo sapiens, UniProt Q13315); assay: Inhibition of ATM (unknown origin) phosphorylation at Ser1981 by cell-based assay
[14] = Cmax in mouse at 3 mg/kg, po; assay type: ADME, organism-based; set-up: dose 3 mg/kg, route oral; conditions: in vivo
[15] = Oral bioavailability in dog at 0.6 mg/kg; assay type: ADME, organism-based, Canis lupus familiaris; conditions: in vivo
[16] = target: Serine/threonine-protein kinase ATR (Homo sapiens, UniProt Q13535); assay: Inhibition of ATR (unknown origin)
[17] = target: DNA-dependent protein kinase catalytic subunit (Homo sapiens, UniProt P78527); assay: Inhibition of DNA-PK (unknown origin)
[18] = target: Phosphatidylinositol 3-kinase catalytic subunit type 3 (Homo sapiens, UniProt Q8NEB9); assay: Inhibition of VPS34 (unknown origin)
[19] = Cmax in rat at 15 mg/kg, po; assay type: ADME, organism-based; set-up: dose 15 mg/kg, route oral; conditions: in vivo
[20] = target: Serine/threonine-protein kinase mTOR (Homo sapiens, UniProt P42345); assay: Inhibition of mTOR (unknown origin)
[21] = Clearance in dog at 0.1 mg/kg, iv and 0.6 mg/kg, po; assay type: ADME, organism-based, Canis lupus familiaris; conditions: in vivo
[22] = Oral bioavailability in mouse at 3 mg/kg; assay type: ADME, organism-based; conditions: in vivo
[23] = Clearance in mouse at 1 mg/kg, iv and 3 mg/kg, po; assay type: ADME, organism-based; conditions: in vivo
[24] = Cmax in dog at 0.6 mg/kg, po; assay type: ADME, organism-based, Canis lupus familiaris; set-up: dose 0.6 mg/kg, route oral; conditions: in vivo
[25] = target: T3, Phosphatidylinositol 4,5-bisphosphate 3-kinase catalytic subunit alpha isoform; assay: Inhibition of P110alpha (unknown origin) using L-a-phosphatidylinositol as substrate by luminescence assay
[26] = Clearance in rat liver microsomes in presence of cofactor for glucuronyl transferases; assay type: ADME, Microsome; conditions: read-out: CLH

Sequence of Phosphatidylinositol 4,5-bisphosphate 3-kinase catalytic subunit gamma isoform (P48736 whole entry, canonical isoform): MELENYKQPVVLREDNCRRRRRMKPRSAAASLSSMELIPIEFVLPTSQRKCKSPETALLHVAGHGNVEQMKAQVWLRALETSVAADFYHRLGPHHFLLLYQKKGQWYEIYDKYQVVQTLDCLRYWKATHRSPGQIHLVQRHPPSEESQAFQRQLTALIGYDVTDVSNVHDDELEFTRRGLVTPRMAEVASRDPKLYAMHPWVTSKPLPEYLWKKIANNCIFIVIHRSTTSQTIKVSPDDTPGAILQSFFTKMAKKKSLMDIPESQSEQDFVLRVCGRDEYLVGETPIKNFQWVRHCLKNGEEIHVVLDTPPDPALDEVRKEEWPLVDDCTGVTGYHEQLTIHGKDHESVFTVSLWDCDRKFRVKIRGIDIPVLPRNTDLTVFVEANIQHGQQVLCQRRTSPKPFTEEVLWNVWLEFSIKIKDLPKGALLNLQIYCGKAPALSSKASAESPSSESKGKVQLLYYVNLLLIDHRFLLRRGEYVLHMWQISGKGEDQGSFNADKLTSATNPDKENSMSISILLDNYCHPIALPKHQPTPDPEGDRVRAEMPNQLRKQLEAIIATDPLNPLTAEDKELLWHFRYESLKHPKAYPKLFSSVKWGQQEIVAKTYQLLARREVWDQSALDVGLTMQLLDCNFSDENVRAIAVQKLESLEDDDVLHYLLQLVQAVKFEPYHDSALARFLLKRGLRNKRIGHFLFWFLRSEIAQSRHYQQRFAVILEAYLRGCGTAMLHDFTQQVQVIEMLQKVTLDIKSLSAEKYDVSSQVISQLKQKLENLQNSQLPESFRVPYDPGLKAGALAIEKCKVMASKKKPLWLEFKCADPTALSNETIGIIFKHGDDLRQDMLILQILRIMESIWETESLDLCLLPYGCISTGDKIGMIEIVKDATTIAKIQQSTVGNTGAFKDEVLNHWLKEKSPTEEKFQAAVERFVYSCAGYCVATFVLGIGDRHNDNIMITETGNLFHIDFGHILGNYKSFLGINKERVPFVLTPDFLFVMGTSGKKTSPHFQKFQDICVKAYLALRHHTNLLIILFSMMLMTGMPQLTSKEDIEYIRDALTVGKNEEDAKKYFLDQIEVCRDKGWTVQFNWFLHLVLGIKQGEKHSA
T2 sequence (P42338 whole entry, canonical isoform): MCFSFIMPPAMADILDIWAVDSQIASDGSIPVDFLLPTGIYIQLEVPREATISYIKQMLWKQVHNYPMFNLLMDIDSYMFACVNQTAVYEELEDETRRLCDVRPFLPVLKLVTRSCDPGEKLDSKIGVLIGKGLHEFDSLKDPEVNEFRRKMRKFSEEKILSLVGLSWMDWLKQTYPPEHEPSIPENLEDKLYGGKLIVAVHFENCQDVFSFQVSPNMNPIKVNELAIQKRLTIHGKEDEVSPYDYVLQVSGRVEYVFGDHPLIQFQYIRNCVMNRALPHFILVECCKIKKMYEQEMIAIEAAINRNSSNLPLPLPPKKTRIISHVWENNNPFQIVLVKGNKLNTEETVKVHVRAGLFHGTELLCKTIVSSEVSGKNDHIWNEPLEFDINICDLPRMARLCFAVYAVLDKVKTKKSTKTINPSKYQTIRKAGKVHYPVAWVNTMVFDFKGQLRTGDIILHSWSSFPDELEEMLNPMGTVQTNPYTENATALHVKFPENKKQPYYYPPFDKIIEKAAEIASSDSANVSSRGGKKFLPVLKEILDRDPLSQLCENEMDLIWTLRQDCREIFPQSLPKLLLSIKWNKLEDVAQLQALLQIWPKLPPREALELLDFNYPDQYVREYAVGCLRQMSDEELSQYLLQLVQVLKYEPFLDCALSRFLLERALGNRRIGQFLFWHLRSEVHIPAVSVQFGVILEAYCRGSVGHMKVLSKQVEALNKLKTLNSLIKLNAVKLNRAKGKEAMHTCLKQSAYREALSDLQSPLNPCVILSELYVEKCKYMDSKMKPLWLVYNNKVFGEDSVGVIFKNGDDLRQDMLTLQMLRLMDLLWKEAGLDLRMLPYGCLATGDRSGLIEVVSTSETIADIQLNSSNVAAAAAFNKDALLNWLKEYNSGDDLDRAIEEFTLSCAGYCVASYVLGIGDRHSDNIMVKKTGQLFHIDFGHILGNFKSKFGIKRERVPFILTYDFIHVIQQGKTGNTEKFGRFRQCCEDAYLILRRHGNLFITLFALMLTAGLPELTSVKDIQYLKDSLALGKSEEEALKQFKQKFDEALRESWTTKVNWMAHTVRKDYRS
T3 sequence (P42336 whole entry, canonical isoform): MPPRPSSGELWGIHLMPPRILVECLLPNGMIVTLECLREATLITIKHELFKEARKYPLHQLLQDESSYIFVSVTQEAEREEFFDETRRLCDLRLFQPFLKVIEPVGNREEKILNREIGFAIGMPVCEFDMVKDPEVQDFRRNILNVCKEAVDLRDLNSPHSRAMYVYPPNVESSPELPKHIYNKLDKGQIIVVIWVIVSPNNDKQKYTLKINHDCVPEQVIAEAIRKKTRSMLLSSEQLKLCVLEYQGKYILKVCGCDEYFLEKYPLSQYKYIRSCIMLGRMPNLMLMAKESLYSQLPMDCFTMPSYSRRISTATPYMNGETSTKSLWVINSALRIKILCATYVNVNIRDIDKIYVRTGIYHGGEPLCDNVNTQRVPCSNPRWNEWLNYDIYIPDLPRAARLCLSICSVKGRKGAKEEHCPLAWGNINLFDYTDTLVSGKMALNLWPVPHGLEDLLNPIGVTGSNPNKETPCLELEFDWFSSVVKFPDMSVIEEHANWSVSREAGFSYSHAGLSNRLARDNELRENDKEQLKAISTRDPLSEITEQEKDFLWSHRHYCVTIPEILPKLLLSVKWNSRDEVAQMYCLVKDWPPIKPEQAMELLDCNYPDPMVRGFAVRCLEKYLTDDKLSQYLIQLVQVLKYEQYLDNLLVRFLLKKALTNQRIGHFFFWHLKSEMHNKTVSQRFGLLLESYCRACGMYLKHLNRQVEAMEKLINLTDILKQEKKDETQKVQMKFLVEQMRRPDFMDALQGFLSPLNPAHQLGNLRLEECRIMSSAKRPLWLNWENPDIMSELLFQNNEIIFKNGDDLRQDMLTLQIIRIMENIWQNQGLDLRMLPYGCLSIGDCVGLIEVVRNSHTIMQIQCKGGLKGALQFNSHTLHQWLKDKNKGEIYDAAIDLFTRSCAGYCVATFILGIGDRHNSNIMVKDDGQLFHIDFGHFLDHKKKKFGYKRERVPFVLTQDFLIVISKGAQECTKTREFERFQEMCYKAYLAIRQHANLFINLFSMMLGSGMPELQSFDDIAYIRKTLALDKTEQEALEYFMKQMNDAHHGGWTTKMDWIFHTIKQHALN
Sequence of Cytochrome P450 3A4 (P08684 whole entry, canonical isoform): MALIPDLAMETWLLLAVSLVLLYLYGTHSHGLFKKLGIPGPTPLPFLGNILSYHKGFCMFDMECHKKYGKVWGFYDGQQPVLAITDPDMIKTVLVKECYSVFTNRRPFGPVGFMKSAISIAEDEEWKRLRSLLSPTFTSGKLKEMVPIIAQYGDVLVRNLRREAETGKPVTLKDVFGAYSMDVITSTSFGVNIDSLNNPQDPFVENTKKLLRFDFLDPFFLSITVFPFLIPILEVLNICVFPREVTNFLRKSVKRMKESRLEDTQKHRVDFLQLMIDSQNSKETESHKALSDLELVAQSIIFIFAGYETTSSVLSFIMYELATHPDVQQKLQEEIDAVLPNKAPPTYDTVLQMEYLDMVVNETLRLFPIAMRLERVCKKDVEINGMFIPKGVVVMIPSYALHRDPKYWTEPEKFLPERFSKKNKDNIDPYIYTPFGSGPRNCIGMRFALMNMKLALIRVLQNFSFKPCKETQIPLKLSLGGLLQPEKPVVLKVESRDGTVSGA
Sequence of Phosphatidylinositol 3-kinase catalytic subunit type 3 (Q8NEB9 whole entry): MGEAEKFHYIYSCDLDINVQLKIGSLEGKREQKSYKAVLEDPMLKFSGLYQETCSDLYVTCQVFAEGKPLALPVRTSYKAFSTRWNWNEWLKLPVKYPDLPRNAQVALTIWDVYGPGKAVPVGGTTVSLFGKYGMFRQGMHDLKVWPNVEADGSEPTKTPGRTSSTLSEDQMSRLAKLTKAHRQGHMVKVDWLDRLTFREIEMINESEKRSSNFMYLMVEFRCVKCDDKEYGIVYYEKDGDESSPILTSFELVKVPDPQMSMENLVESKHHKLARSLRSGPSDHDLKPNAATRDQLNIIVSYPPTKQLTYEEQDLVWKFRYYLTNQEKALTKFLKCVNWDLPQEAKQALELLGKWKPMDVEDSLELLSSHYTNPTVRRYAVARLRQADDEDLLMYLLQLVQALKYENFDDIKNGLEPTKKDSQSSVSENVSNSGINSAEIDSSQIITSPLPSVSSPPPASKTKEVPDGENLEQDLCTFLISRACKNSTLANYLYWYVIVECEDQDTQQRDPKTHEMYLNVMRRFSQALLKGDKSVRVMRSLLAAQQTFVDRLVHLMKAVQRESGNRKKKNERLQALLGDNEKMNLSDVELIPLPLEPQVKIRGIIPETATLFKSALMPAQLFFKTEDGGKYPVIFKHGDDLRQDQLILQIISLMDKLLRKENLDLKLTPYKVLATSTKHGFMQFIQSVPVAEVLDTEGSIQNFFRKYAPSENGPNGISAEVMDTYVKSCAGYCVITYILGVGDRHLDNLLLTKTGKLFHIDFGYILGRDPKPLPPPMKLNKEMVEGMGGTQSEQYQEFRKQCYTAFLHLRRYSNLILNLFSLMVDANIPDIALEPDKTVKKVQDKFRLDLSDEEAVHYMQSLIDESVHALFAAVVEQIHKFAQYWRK

Compound | IC50 [1] | IC50 (Cytochrome P450 3A4) | IC50 [2] | IC50 [4] | microsomal CLint [6] | IC50 [9] | IC50 [10] | IC50 [11] | IC50 [25] | microsomal CLint [26] | other results
Cc1nc(NC(=O)N2CCC[C@H]2C(N)=O)sc1-c1ccnc(C2(C)CC2)n1 | 3 µM | > 10 µM | 3.1 µM | 0.69 µM | 47 µL/min/mg | 0.81 µM | 9.6 µM | – | – | – | clearance [3]: 8 mL/min/kg; fraction unbound [5]: 0.029; half-life [7]: 1.7 h; Vd [8]: 0.9 L/kg
Cc1nc(NC(=O)N2CCC[C@H]2C(N)=O)sc1-c1ccnc(C2(C#N)CC2)c1 | > 10 µM | > 10 µM | – | 1.1 µM | 41 µL/min/mg | 2 µM | > 10 µM | 0.64 µM | – | – | –
Cc1nc(NC(=O)N2CCC[C@H]2C(N)=O)sc1-c1ccnc(C(C)(C)C(F)(F)F)c1 [ALPELISIB] | – | – | – | – | – | – | – | – | – | – | clearance [12]: 10 mL/min/kg; IC50 [13]: > 10 µM; Cmax [14]: 520 nM; bioavailability [15]: 140%; IC50 [16]: > 9.1 µM; clearance [3]: 10 mL/min/kg; IC50 [17]: > 9.1 µM; IC50 [18]: > 9.1 µM; fraction unbound [5]: 0.057; Cmax [19]: 190 nM; half-life [7]: 2.9 h; Vd [8]: 1.9 L/kg; IC50 [20]: > 9.1 µM; clearance [21]: 8 mL/min/kg; bioavailability [22]: 106%; clearance [23]: 8 mL/min/kg; Cmax [24]: 1070 nM
CC(C)(c1cc(-c2sc(NC(=O)N3CCC[C@H]3C(N)=O)nc2Cl)ccn1)C(F)(F)F | 4.9 µM | – | – | 1.4 µM | 17 µL/min/mg | 0.43 µM | > 10 µM | 0.34 µM | – | – | –
CC(C)(c1cc(-c2cnc(NC(=O)N3CCC[C@H]3C(N)=O)s2)ccn1)C(F)(F)F | 2.9 µM | > 10 µM | – | 0.83 µM | 27 µL/min/mg | 1.1 µM | 2.4 µM | 0.14 µM | 0.0095 µM | – | –
Cc1nc(NC(=O)N2CCC[C@@H]2C(N)=O)sc1-c1ccnc(C(C)(C)C)c1 | – | – | 8.2 µM | > 10 µM | – | 3.3 µM | – | – | – | 36 µL/min/mg | –
Cc1nc(NC(=O)N2CCC[C@H]2C(N)=O)sc1-c1ccnc(C(C)C)n1 | 1.3 µM | > 10 µM | 4 µM | 1.4 µM | 36 µL/min/mg | 0.96 µM | 5.9 µM | 0.1 µM | 0.016 µM | – | –
CCN(CC)c1nccc(-c2sc(NC(=O)N3CCC[C@H]3C(N)=O)nc2C)n1 | 2.5 µM | – | – | 0.41 µM | 96 µL/min/mg | 0.34 µM | 4.4 µM | 0.17 µM | – | – | –
Cc1nc(NC(=O)N2CCC[C@H]2C(N)=O)sc1-c1ccnc(C2CCC2)n1 | > 10 µM | > 10 µM | 1.8 µM | 0.61 µM | 53 µL/min/mg | 0.69 µM | 7.3 µM | 0.44 µM | 0.02 µM | – | –
Cc1nc(NC(=O)N2CCC[C@H]2C(N)=O)sc1-c1cc(C(C)C)ncn1 | > 10 µM | – | > 9.1 µM | – | – | – | > 10 µM | 4.6 µM | 0.32 µM | – | –
CNC(=O)[C@@H]1CCCN1C(=O)Nc1nc(C)c(-c2ccnc(C(C)(C)C)c2)s1 | 5.8 µM | – | > 9.1 µM | 4.6 µM | – | 4.2 µM | > 10 µM | > 10 µM | 2.7 µM | 104 µL/min/mg | –
Cc1nc(NC(=O)N2CCC[C@H]2C(N)=O)sc1-c1ccnc(C(C)(C)C)n1 | – | > 10 µM | – | – | – | – | – | – | – | 62 µL/min/mg | clearance [3]: 21 mL/min/kg; fraction unbound [5]: 0.06; half-life [7]: 1.2 h; Vd [8]: 1.2 L/kg
Cc1nc(NC(=O)N2CCCC2)sc1-c1ccnc(C(C)(C)C)c1 | 0.77 µM | – | 4.9 µM | 0.93 µM | – | 0.59 µM | > 10 µM | 2.5 µM | 0.62 µM | 186 µL/min/mg | –
Cc1nc(NC(=O)N2CCC[C@H]2C(N)=O)sc1-c1ccnc(C(C)(C)C)c1 | 0.72 µM | > 10 µM | – | 0.43 µM | – | 0.33 µM | 8 µM | – | – | 77 µL/min/mg | clearance [3]: 39 mL/min/kg; half-life [7]: 3.4 h; Vd [8]: 1.4 L/kg
Cc1nc(NC(=O)N2CC[C@H]2C(N)=O)sc1-c1ccnc(C(C)(C)C)n1 | 1.6 µM | – | 1.2 µM | 0.32 µM | 44 µL/min/mg | 0.29 µM | 6.4 µM | 0.23 µM | 0.019 µM | – | –
Cc1nc(NC(=O)N2CCC[C@H]2C(N)=O)sc1-c1ccc(-n2cccn2)cc1 | 0.62 µM | – | – | – | – | – | 2.1 µM | 0.13 µM | – | – | –
